Measurements from patent US20240182525A1, “NOVEL BICYCLIC COMPOUND, OPTICAL ISOMER THEREOF OR PHARMACEUTICALLY ACCEPTABLE SALT THEREOF, USE THEREOF, AND PREPARATION METHOD THEREFOR” (KOREARESEARCH INSTITUTE OF BIOSCIENCE AND BIOTECHNOLOGY, priority 2021, published 2024).

How the values were obtained:
[1] = tested on: β, a Wnt3a signaling protein; assay: Western blotting of Wnt3a signaling protein in 3T3-L1; assay type: cell-based, mouse; details: 7.5 μM, 3T3-L1, western blotting, FIGS. 6 and 7
Experimental: To confirm the Wnt3a signaling of Chemical Formula 1-1, the protein level of β, a Wnt3a signaling protein, was measured in the 3T3-L1 cell line. The 3T3-L1 cells were cultured in a 6-well plate (2×10^5 cell/well), and the next day, the cells were replaced with normal culture media (Undifferentiated media; UND) and differentiation induction media (Differentiation media; DM), respectively, followed by treatment with the compound of Chemical Formula 1-1 at 7.5 μM for 48 hours, and then the cells were replaced with new normal culture media (Maintaining media; MM). Here, the compound of Chemical Formula 1-1 at a concentration of 7.5 μM was cultured for 72 hours, followed by western blotting. In FIGS. 6 and 7, it was confirmed that the protein level of β increased in the treatment of the compound of Chemical Formula 1-1 alone and the treatment of Chemical Formula 1-1 and Wnt3a together.

MC3T3-E1 cells = assay: ALP activity analysis in MC3T3-E1 cell lysate; assay type: cell-based, mouse; details: 5, 10, and 20 νM, 7 days, absorbance 405 nm, FIG. 16
Experimental: In order to analyze the effect of the compound of Chemical Formula 1 according to the present invention on ALP activity, MC3T3-E1 cells, which are mouse osteoblasts, were inoculated into a 96-well plate at a concentration of 5×10^3 cell/well, and incubated overnight in growth media containing alpha-minimum essential media (alpha-MEM, JBI #008-53) supplemented with 10% fetal bovine serum (FBS, Gibco #16000, USA) and 1× antibiotics (Gibco #15240062, USA). As a negative control, an alpha minimum essential medium containing 10% FBS was used. As a positive control, 100 μg/ml of ALP-activating ascorbic acid and 10 mM of β-glycerophosphate were mixed, and the positive control was exchanged with media added with 5, 10, and 20 νM of Chemical Formula 1-1 (6-J) on Day 3, and treated for 7 days. After 7 days, the media were removed and the cells were washed with PBS, and the cultured MC3T3-E1 cells were lysed with 0.1% TritonX-100 (in PBS) solution and centrifuged to obtain only the supernatant. A predetermined amount of supernatant and ALP were added and reacted for 30 minutes, and then the absorbance was confirmed at 405 nm.

[2] = tested on: Wnt activity (HEK293T-TopFLASH cells); assay: TopFLASH luciferase assay, HEK293T-TopFLASH stable cell line (Wnt3a activity assay); assay type: cell-based, human; details: 1-50 μM, 24 hours
Experimental: In order to measure the level of Wnt activity of the compound of Chemical Formula 1-1, TopFLASH luciferase assay was performed on the HEK293T cell line. The TopFLASH luciferase assay was performed by creating a HEK293T-TopFLASH stable cell line with a viral vector made by combining Luciferase (reporter gene) with the TCF7 promoter. HEK293T-TopFLASH cells were cultured in a 96-well plate (1×10^4 cells/well), and the next day, the cells were treated with 1-50 μM of the compound of Chemical Formula 1-1 and confirmed by One-Glo™ (modified luciferin, Pormega, USA) after 24 hours.

[3] = Cytotoxicity assay, HEK293T; assay type: cell-based; details: human, HEK293T cells (embryonic kidney), maximum concentration 100 μM
Experimental: (§1) To measure the cytotoxicity of the compound represented by Chemical Formula 1 (Chemical Formula 1-1), toxicity was measured in mouse preadipocyte 3T3-L1 cell line, human malignant melanoma A375 cell line, mouse malignant melanoma B16F10 cell line, human oral cancer MDA-MB-435 cell line, mouse breast cancer 4T1 cell line, human breast cancer MCF7 cell line, human brain cancer U87MG cell line, human glioblastoma U373MG cell line, human cervical cancer HeLa cell line, mouse embryonic fibroblast (MEF) cell line, human embryonic kidney HEK293T cell line (Korea Cell Line Bank). First, 1×10^4 cells were divided into 200 μl each in a 96-well plate using Dulbecco's Modified Eagle's Medium (DMEM) supplemented with 10% fetal bovine serum (FBS), […] streptomycin, and 50 U/ml penicillin, while maintaining various cells at 37r in an atmosphere of 5% CO2. The cells were treated with the compound of Chemical Formula 1-1 of the present invention at a maximum concentration of 100 μM and cultured for 48 hours under the same culture conditions. After the incubation, the culture media were removed and the cytotoxicity test results were confirmed (Table 2 and FIG. 3 below).

[4] = Cytotoxicity assay, 3T3-L1; assay type: cell-based; details: mouse, 3T3-L1 cells (preadipocytes); 3T3-L1, 48 hours, maximum concentration 100 μM
Experimental: as §1

[5] = tested on: osteogenic differentiation-related genes (mCol1a1, mOsteocalcin, mOsterix); assay: RT-PCR of osteogenic differentiation-related genes; assay type: cell-based, mouse; details: Day 7 of differentiation, FIG. 17
From the text: In order to confirm the effect of the compound of Chemical Formula 1 according to the present invention on promoting osteogenic differentiation-related genes, the expression levels of genes promoting osteogenesis were confirmed.
To confirm genetic changes during the differentiation process, total RNA was isolated on Day 7 of differentiation using Trizol reagent (Invitrogen, CA, USA) according to the manufacturer's instructions. The cultured cells were washed twice with cold PBS and lysed with 1 ml of Trizol reagent. To the resulting product, 200 μl of chloroform was added and mixed, followed by centrifugation at 4° C. and 12000 rpm for 20 minutes to separate the supernatant. The same amount of isopropanol was added to the separated supernatant, mixed, and centrifuged again at 4° C. and 12000 rpm. The supernatant was removed, and the remaining pellet was washed three times with 70% ethanol to separate RNA. For RT-PCR, the same amount of total RNA (5 μl) was put into the RT-PCR amplification kit and reacted at 45° C. for 60 minutes to prepare complementary DNA (cDNA). RT-PCR was performed on the cDNA by using AccuPower®RT/PCR PreMix (Bioneer, Korea). Briefly, 2 μl each of 75 mM rATP, rUTP, rCTP, rGTP, enzyme mixture, and 10× reaction buffer was added to 8 μl of the cDNA solution prepared above, followed by amplification according to the manufacturer's instructions, and the quantity and quality of the amplified mRNA was evaluated using nanodrops and 1% agarose gel electrophoresis.

Cytotoxicity assay, HeLa = assay type: cell-based; details: human, HeLa cells (cervical cancer), maximum concentration 100 μM
Experimental: as §1

CC(C)CC1NC(=O)C2CCCN2C(=O)C(C(O)C(C)C)NC(=O)CNC(=O)C(C(C)O)NC(=O)C2NC(=O)C(NC(=O)/C=C/c3ccccc3C(O)C(C)O)C(C)OC(=O)C(CC(N)=O)NC(=O)C(NC(=O)C(O)NC1=O)C(O)c1ccc(O)c(c1)Oc1ccc2cc1 (centres unmarked) [Chemical Formula 1-1]
protein level of β ([1]; compound alone): increased | protein level of β ([1]; together with Wnt3a): increased | ALP activity (MC3T3-E1 cells): increased | Wnt activity (luciferase values) ([2]; compound alone, FIG. 4): greatly increased | Wnt activity (luciferase values) ([2]; simultaneous treatment with Wnt3a-conditional media (2.5%), FIG. 5): greatly increased | IC50 at 48 h [3]: > 100 µM | IC50 at 48 h [4]: > 100 µM | mRNA expression level of mCol1a1 [5]: increase | mRNA expression level of mOsteocalcin [5]: increase | mRNA expression level of mOsterix [5]: increase | IC50 at 48 h (Cytotoxicity assay, HeLa): > 100 µM
